Measured values as given in PubChem BioAssay AID200 (DTP/NCI, 2004).
“And” between values parts separate entries of the source, which are not always exact repeats. Equal values may be shown once. Inconclusive results and toxic doses are left out. Rule for the calls: active = survival T/C of 150% or more; inactive = T/C below 125% in these data. *1 amine or outer side, *2 acyl side, *3 side chain or, on linkers, in order; H or OH if unused. Where a SMILES comes first, the peptide text is derived from it. Bridges are numbered along the chain shown (N, C = ends). [ ]: non-standard residue; d: D form. The star is where a group is joined. X5 = CC(C)C(C)C(C(=O)[*:2])N(C)[*:1]; Picolinoyl(3-OH) = O=C(c1ncccc1O)*; NMePhg = CN[CH](C(=O)O)c1ccccc1; Hyp = O=C(O)[CH]1C[CH](O)CN1; Sar = CNCC(=O)O

System: B6C3F1 mice, B16 melanoma ip, median survival T/C
Experiment: NCI In Vivo Anticancer Drug Screen. Data for tumor model B16 Melanoma (intraperitoneal) in B6C3F1 mice
Conditions: endpoint: median survival time, schedule: Q01DX009 (ip), higher = longer survival
Method: The antitumor activity of compounds was measured in mice bearing transplantable tumors. Survival or tumor size were measured and the results are expressed as the measurement made in the treated group (T) divided by the measurement made in the vehicle treated control group (C). The tumor model used in this assay is B16 Melanoma (intraperitoneal) in B6C3F1 mice

[1] = dose: 100.0 mg/kg/injection, vehicle: saline with Tween-80
[2] = dose: 50.0 mg/kg/injection, vehicle: Klucel (hydroxypropylcellulose) (HPC)
[3] = dose: 100.0 mg/kg/injection, vehicle: Klucel (hydroxypropylcellulose) (HPC)
[4] = dose: 200.0 mg/kg/injection, vehicle: Klucel (hydroxypropylcellulose) (HPC)
[5] = dose: 3.13 mg/kg/injection, vehicle: saline
[6] = dose: 6.25 mg/kg/injection, vehicle: saline

Measured: T/C

O=Cc1ccc(O)c(O)c1
inactive: dose: 6.25 mg/kg/injection, vehicle: saline with Tween-80 100 % of control | dose: 12.5 mg/kg/injection, vehicle: saline with Tween-80 87 % of control | dose: 12.5 mg/kg/injection, vehicle: saline 97 % of control | dose: 25.0 mg/kg/injection, vehicle: saline with Tween-80 94 % of control and 97 % of control | dose: 25.0 mg/kg/injection, vehicle: saline 99 % of control | dose: 25.0 mg/kg/injection, vehicle: water 112 % of control and 100 % of control | dose: 50.0 mg/kg/injection, vehicle: saline with Tween-80 93 % of control | dose: 50.0 mg/kg/injection, vehicle: saline 89 % of control | dose: 50.0 mg/kg/injection, vehicle: water 112 % of control and 90 % of control | [1] 89 % of control | dose: 100.0 mg/kg/injection, vehicle: saline 96 % of control | dose: 100.0 mg/kg/injection, vehicle: water 95 % of control and 96 % of control | dose: 200.0 mg/kg/injection, vehicle: saline with Tween-80 89 % of control | dose: 200.0 mg/kg/injection, vehicle: saline 95 % of control | dose: 400.0 mg/kg/injection, vehicle: saline with Tween-80 92 % of control | dose: 400.0 mg/kg/injection, vehicle: saline 104 % of control

CC(C)(C)NC(C1=CC(C)(C)c2ccccc2C1=O)c1ccccc1 (stereo not drawn)
inactive: [2] 99 % of control | [3] 88 % of control | [4] 98 % of control

COc1cc2c(cc1OC)-c1c3c(cc4c1[C@@H](C2)N(C)CC4)OCO3
inactive: dose: 6.25 mg/kg/injection, vehicle: distilled water + Tween-80 98 % of control | dose: 12.5 mg/kg/injection, vehicle: distilled water + Tween-80 89 % of control | dose: 25.0 mg/kg/injection, vehicle: distilled water + Tween-80 104 % of control | dose: 50.0 mg/kg/injection, vehicle: distilled water + Tween-80 92 % of control

COC1=C(C)C(=O)C2=C(C1=O)C(CO)N1C(C#N)C3CC4C(C1C2N1CCOC41)N3C (stereo not drawn)
inactive: dose: 0.06 mg/kg/injection, vehicle: acid diluted with saline 105 % of control | dose: 0.12 mg/kg/injection, vehicle: acid diluted with saline 98 % of control | dose: 0.12 mg/kg/injection, vehicle: saline + alcohol 102 % of control | dose: 0.25 mg/kg/injection, vehicle: acid diluted with saline 111 % of control | dose: 0.25 mg/kg/injection, vehicle: saline + alcohol 109 % of control and 104 % of control | dose: 0.5 mg/kg/injection, vehicle: acid diluted with saline 116 % of control and 103 % of control | dose: 0.5 mg/kg/injection, vehicle: saline + alcohol 112 % of control and 113 % of control and 118 % of control | dose: 1.0 mg/kg/injection, vehicle: acid diluted with saline 108 % of control and 113 % of control | dose: 1.0 mg/kg/injection, vehicle: saline + alcohol 109 % of control and 121 % of control

CC(C)CC1NC(=O)C(NC(=O)c2ncccc2O)C(C)OC(=O)C(c2ccccc2)N(C)C(=O)C(C)NC(=O)C(C(C)C(C)C)N(C)C(=O)CN(C)C(=O)C2CC(O)CN2C1=O (stereo not drawn) ({Picolinoyl(3-OH)}-TL[Hyp][Sar][X5]A[NMePhg]; ester 1-C; configuration not given here)
inactive: [2] 103 % of control | [3] 107 % of control | [4] 111 % of control

C=C(OC1C(C)=C2C(C1OC(=O)CCCCCCC)C(C)(OC(C)=O)CC(OC(=O)CCC)C1(O)C2OC(=O)C1(C)O)/C(C)=C/C (stereo not drawn)
inactive: dose: 0.09 mg/kg/injection, vehicle: Klucel (hydroxypropylcellulose) (HPC) 99 % of control | dose: 0.18 mg/kg/injection, vehicle: Klucel (hydroxypropylcellulose) (HPC) 114 % of control | dose: 0.37 mg/kg/injection, vehicle: Klucel (hydroxypropylcellulose) (HPC) 102 % of control | dose: 0.75 mg/kg/injection, vehicle: Klucel (hydroxypropylcellulose) (HPC) 114 % of control

CCCCC(NC(=O)CNC(=O)CNC(=O)OCc1ccccc1)C(=O)O (stereo not drawn) (HELM PEPTIDE1{[O=C(OCc1ccccc1)[*:2]].G.G.[CCCCC(N[*:1])C(=O)O]}$$$$V2.0)
inactive: [3] 102 % of control | [4] 105 % of control | dose: 400.0 mg/kg/injection, vehicle: Klucel (hydroxypropylcellulose) (HPC) 96 % of control

CN(C)CCC(C#N)(CCC1CCCCC1)c1ccccc1 (stereo not drawn)
inactive: dose: 10.0 mg/kg/injection, vehicle: saline 95 % of control | dose: 20.0 mg/kg/injection, vehicle: saline 95 % of control | dose: 40.0 mg/kg/injection, vehicle: saline 92 % of control

COc1cc2c(c(OC)c1OC)-c1c(cc3c(c1OC)OCO3)CC(C)C(C)(O)C2OC(=O)c1ccccc1 (stereo not drawn)
inactive: dose: 25.0 mg/kg/injection, vehicle: saline + Tween-80 + alcohol 107 % of control | dose: 50.0 mg/kg/injection, vehicle: saline + Tween-80 + alcohol 98 % of control | dose: 100.0 mg/kg/injection, vehicle: saline + Tween-80 + alcohol 115 % of control | dose: 200.0 mg/kg/injection, vehicle: saline + Tween-80 + alcohol 110 % of control

Nc1nc2c(ncn2C2OC(CO)C(O)C2O)c(=O)[nH]1 (stereo not drawn)
inactive: dose: 75.0 mg/kg/injection, vehicle: saline with Tween-80 120 % of control | dose: 1200.0 mg/kg/injection, vehicle: saline with Tween-80 121 % of control | dose: 2400.0 mg/kg/injection, vehicle: saline with Tween-80 116 % of control

CC(C)[NH-].CC(C)[NH-].[Cl][Pt+2][Cl]
inactive: dose: 1.56 mg/kg/injection, vehicle: other 122 % of control | dose: 3.12 mg/kg/injection, vehicle: other 120 % of control

CCCCCCCCCCNCCS
inactive: dose: 5.0 mg/kg/injection, vehicle: Klucel (hydroxypropylcellulose) (HPC) 88 % of control | dose: 10.0 mg/kg/injection, vehicle: Klucel (hydroxypropylcellulose) (HPC) 99 % of control | dose: 20.0 mg/kg/injection, vehicle: Klucel (hydroxypropylcellulose) (HPC) 104 % of control

CO[C@@H]1[C@H](O)CC[C@]2(CO2)[C@H]1[C@@]1(C)O[C@@H]1CC=C(C)C
inactive: dose: 1.56 mg/kg/injection, vehicle: saline with Tween-80 102 % of control and 105 % of control | dose: 3.12 mg/kg/injection, vehicle: saline with Tween-80 108 % of control and 109 % of control and 122 % of control | [5] 108 % of control | [6] 111 % of control | [1] 104 % of control

COc1ccc(C(=O)C(=O)c2ccc(OC)c(OC)c2)cc1OC
inactive: dose: 1.56 mg/kg/injection, vehicle: saline 101 % of control | [5] 99 % of control | [6] 97 % of control

C=C(C)[C@]12CC(C)C34OC(/C=C\C=C\CCCCCCCCC)(O[C@@H]1[C@@H]3[C@@H]1O[C@]1(CO)[C@@H](O)[C@]1(O)C(=O)C(C)=C[C@@H]41)O2 (stereo partly drawn)
inactive: dose: 0.09 mg/kg/injection, vehicle: distilled water + alcohol 110 % of control | dose: 0.18 mg/kg/injection, vehicle: distilled water + alcohol 110 % of control | dose: 0.37 mg/kg/injection, vehicle: distilled water + alcohol 104 % of control
